Patent publication US5093496A, “Spiro-isoquinoline-pyrrolidines and analogs thereof useful as aldose reductase inhibitors” (American Home Products Corporation, priority 1991, dated 1992)
Where two headings read alike, the source gives them in different places.

Key:
Galactitol Accumulation = test: lowering of galactitol (dulcitol) accumulation in tissues of galactosemic rats; type: in vivo, rat (Sprague-Dawley); conditions: four days, vs untreated galactosemic rats; for % Lowering Galactitol Accumulation In Vivo, D: diaphragm
Excerpt: The aldose reductase inhibiting property of the compounds of this invention and the utilization of the compounds in preventing, diminishing and alleviating diabetic complications are demonstrable in experiments using galactosemic rats, see Dvornik et al., Science, 182, 1146 (1973). Such experiments are exemplified hereinbelow after the listing of the following general comments pertaining to these experiments:
(a) Four or more groups of six male rats, 50-70 g, Sprague-Dawley strain, were used. The first group, the control group, was fed a mixture of laboratory chow (rodent Laboratory Chow, Purina) and glucose at 20% (w/w %) concentration. An untreated galactosemic group was fed a similar diet in which galactose was substituted for glucose. The third group was fed a diet prepared by mixing a given amount of the test compound with the galactose containing diet. The concentration of galactose in the diet of the treated groups was the same as that for the untreated galactosemic group.
(b) After four days, the animals were killed by euthanization. Both the lens and sciatic nerve were removed, weighed and stored frozen for polyol determination.
(c) The polyol determination was performed by a modification of the procedure of M. Kraml and L. Cosyns, Clin. Biochem., 2, 373 (1969). Only two minor reagent changes were made: (a) the rinsing mixture was an aqueous 5% (w/v) trichloroacetic acid solution and (b) the stock solution was prepared by dissolving 25 mg of dulcitol in 100 ml of an aqueous trichloroacetic acid solution. [N.B.: For each experiment the average value found in the tissue from rats fed the glucose diet was subtracted from the individual values found in the corresponding tissue in galactose-fed rats to obtain the amount of polyol accumulated.] The aldose reductase inhibiting effects of the compounds of formula (I) were also tested by employing an in vitro testing procedure similar to that described by S. Hayman and J. H. Kinoshita, J. Biol. Chem., 240, 877 (1965). In the present case the procedure of Hayman and Kinoshita was modified in that the final chromatography step was omitted in the preparation of the enzyme from bovine lens.
The figures under L, N, and D represent the percentage decrease of dulcitol accumulation in the tissues of the lens, sciatic nerve, and diaphragm, respectively, for treated rats as compared to untreated rats.

aldose reductase = biological target: T1, aldose reductase (Bos taurus, UniProt P16116); test: in vitro aldose reductase inhibition (modified Hayman and Kinoshita procedure, enzyme from bovine lens); type: biochemical; conditions: for inhibition at 0.04 µM: 4 × 10^-8 M; for inhibition at 1 µM / inhibition at 0.1 µM: read-out: % inhibition In Vitro
T1 construct: preparation of the enzyme from bovine lens; from tissue; host or cells: bovine lens
Experimental: Only two minor reagent changes were made: (a) the rinsing mixture was an aqueous 5% (w/v) trichloroacetic acid solution and (b) the stock solution was prepared by dissolving 25 mg of dulcitol in 100 ml of an aqueous trichloroacetic acid solution. [N.B.: For each experiment the average value found in the tissue from rats fed the glucose diet was subtracted from the individual values found in the corresponding tissue in galactose-fed rats to obtain the amount of polyol accumulated.] […] In the present case the procedure of Hayman and Kinoshita was modified in that the final chromatography step was omitted in the preparation of the enzyme from bovine lens.

O=C1CC2(C(=O)N1)C(=O)N(Cc1nc3cc(C(F)(F)F)ccc3s1)C(=O)c1ccc(F)cc12 (centres unmarked) [R^1=F, R^3=CF3, 6-Fluoro-2-[[5-(trifluoromethyl)-2-benzothiazolyl]methyl]spiro-[isoquinoline-4(1H),3'-pyrrolidine]-1,2',3,5'(2H)-tetrone]
% Lowering Galactitol Accumulation In Vivo, D (Galactitol Accumulation; 1.0 mg/kg/day in diet): 85%
inhibition at 0.04 µM (aldose reductase): 92%
inhibition at 1 µM (aldose reductase; 10^-6 M): 95%
inhibition at 0.1 µM (aldose reductase): 94%

O=C1CC2(C(=O)N1)C(=O)N(Cc1nc3ccccc3s1)C(=O)c1ccc(F)cc12 (centres unmarked) [R^1=F, R^3=H, 2-(2-Benzothiazolylmethyl)-6-fluorospiro[isoquinoline-4(1H),3'-pyrrolidine]-1,2',3,5'(2H)-tetrone]
% Lowering Galactitol Accumulation In Vivo, D (Galactitol Accumulation; 4.6 mg/kg/day in diet): 93%
inhibition at 0.04 µM (aldose reductase): 91%
inhibition at 0.1 µM (aldose reductase): 94%
inhibition at 1 µM (aldose reductase): 96%

O=C1CC2(C(=O)N1)C(=O)N(Cc1nc3cc(C(F)(F)F)ccc3s1)C(=O)c1ccccc12 (centres unmarked) [R^1=H, R^3=CF3, 2-[[5-(Trifluoromethyl)-2-benzothiazolyl]methyl]spiro[isoquinoline-4-(1H),3'-pyrrolidine]-1,2',3,5'(2H)-tetrone]
% Lowering Galactitol Accumulation In Vivo, D (Galactitol Accumulation; 0.5 mg/kg/day in diet): 94%
% Lowering Galactitol Accumulation In Vivo, D (Galactitol Accumulation; 1.1 mg/kg/day in diet): 89%
% Lowering Galactitol Accumulation In Vivo, L (Galactitol Accumulation; lens, 1.1 mg/kg/day in diet): 22%
inhibition at 0.04 µM (aldose reductase): 90%
inhibition at 1 µM (aldose reductase; 10^-6 M): 95%
inhibition at 0.1 µM (aldose reductase): 93%

O=C1CC2(C(=O)N1)C(=O)N(Cc1nc3ccccc3s1)C(=O)c1ccccc12 (centres unmarked) [R^1=H, R^3=H, 2-(2-Benzothiazolylmethyl)spiro[isoquinoline-4(1H),3'-pyrrolidine)-1,2',3,5'(2H)-tetrone]
inhibition at 0.04 µM (aldose reductase): 81%
inhibition at 1 µM (aldose reductase; 10^-6 M): 97%
inhibition at 0.1 µM (aldose reductase; 10^-7 M): 92%
